These results are taken from patent publication US20240148821A1, “PHARMACEUTICAL USE OF CYCLIC PEPTIDE COMPOUND” (CHUGAI SEIYAKU KABUSHIKI KAISHA, priority 2021, published 2024).

As usually defined, the IC50 is the concentration at which inhibition is half-maximal.

Numbered stars: 1 amine (or outer) side, 2 acyl side, 3 side chain; on linkers, the order of the positions; unused ones are H or OH. Bridge positions count the residues as written; N and C are the ends. Square brackets hold non-standard residues; d marks the D form. Peptide text beside a SMILES is read from it. * marks the point of attachment. hPhe(3-Cl-4-CF3) = N[C@@H](CCc1ccc(C(F)(F)F)c(Cl)c1)C(=O)O; X13 = O=C([C@H](CCc1ccc(OC(F)(F)F)c(Cl)c1)N[*:1])[*:2]; NMePhe(4-Me) = CN[C@@H](Cc1ccc(C)cc1)C(=O)O; NMeAla(cPent) = CN[C@@H](CC1CCCC1)C(=O)O; NMeGly(cPent) = CN[C@H](C(=O)O)C1CCCC1; X127 = COC/C=C/CN(CC(=O)[*:2])[*:1]; NMeCha = CN[C@@H](CC1CCCCC1)C(=O)O; Hyp = O=C(O)[C@@H]1C[C@@H](O)CN1; NEtLeu = CCN[C@@H](CC(C)C)C(=O)O; NMeAhp(2) = CCCCC[C@H](NC)C(=O)O; NMeChg = CN[C@H](C(=O)O)C1CCCCC1; NMeF = CN[C@@H](Cc1ccccc1)C(=O)O; NMeI = CC[C@H](C)[C@H](NC)C(=O)O; NMeE = CN[C@@H](CCC(=O)O)C(=O)O; NMeD = CN[C@@H](CC(=O)O)C(=O)O; NMeL = CN[C@@H](CC(C)C)C(=O)O; NMeV = CN[C@H](C(=O)O)C(C)C; d(β3hA) = C[C@@H](N)CC(=O)O; Azetidin(1-yl) = C1CN(*)C1; NMeS = CN[C@@H](CO)C(=O)O; Morpholide = C1CN(*)CCO1; NMeA = CN[C@@H](C)C(=O)O; Piperidide = C1CCN(*)CC1; Pyrrolidide = C1CCN(*)C1; dNMeA = CN[C@H](C)C(=O)O; Ac5c = NC1(C(=O)O)CCCC1; Aze = O=C(O)[C@@H]1CCN1; Sar = CNCC(=O)O; Propyl = CCC*

This test concerns the target protein-protein interaction between Kras and SOS1 (biotin-tagged human Kras loaded with GDP, His-tagged human SOS1) (Homo sapiens (Human), UniProt P01116, G12D). The test can be described thus: Protein-protein interaction inhibition between Kras and SOS1 (KrasG12D-SOS PPI) using AlphaScreen.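 Further: kras produced in E. coli, Ni-coupled donor beads and streptavidin acceptor beads, excitation 680 nm with emission detected at 520–620 nm via singlet oxygen transfer.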 It counts as biochemical. To be noted: AlphaScreen; biotin-tagged human Kras loaded with GDP, His-tagged human SOS1; read-out: KRAS G12D-SOS PPI IC50. A general note: Alpha assays give light when donor and acceptor beads are brought close together.
On to `CC[C@H](C)[C@@H]1NC(=O)[C@H](CC(C)C)N(C)C(=O)C[C@@H](C(=O)N2CCCCC2)N(C)C(=O)[C@H](C2CCCCC2)N(C)C(=O)C2(CCCC2)NC(=O)CN(C/C=C/COC)C(=O)[C@H](CCc2ccc(C(F)(F)F)c(Cl)c2)NC(=O)CN(C)C(=O)[C@H](CC2CCCCC2)N(C)C(=O)CN(C)C(=O)CN(C)C1=O` [Compound 2051, (11S,17S,26S,29S,33S,36S)-11-[2-[3-chloro-4-(trifluoromethyl)phenyl]ethyl]-36-cyclohexyl-17-(cyclohexylmethyl)-29-isobutyl-9-[(E)-4-methoxybut-2-enyl]-15,18,21,24,30,34,37-heptamethyl-26-[(1S)-1-methylpropyl]-33-(piperidine-1-carbonyl)-6,9,12,15,18,21,24,27,30,34,37-undecazaspiro[4.33]octatriacontane-7,10,13,16,19,22,25,28,31,35,38-undecone] ([NMeL]I[Sar][Sar][NMeCha][Sar][hPhe(3-Cl-4-CF3)][X127][Ac5c][NMeChg][NMeD]-Piperidide; lactam N-11), for which the IC50 is 2.5 nM.

For `CC[C@H](C)[C@@H]1NC(=O)[C@H](C)N(C)C(=O)C[C@@H](C)NC(=O)[C@H](C2CCCC2)N(C)C(=O)C2(CCCC2)NC(=O)[C@@H]2CCCN2C(=O)[C@H](CCc2ccc(C(F)(F)F)c(Cl)c2)NC(=O)[C@@H](C)N(C)C(=O)[C@H](C(C)C)N(C)C(=O)[C@@H]2CCN2C(=O)[C@H](C)N(C)C1=O` [Compound 1066] (cyclo([Ac5c][NMeGly(cPent)][d(β3hA)][NMeA]I[NMeA][Aze][NMeV][dNMeA][hPhe(3-Cl-4-CF3)]P)), the half-maximal inhibitory concentration (IC50) came out at 24 nM.

For the compound `CC[C@H](C)[C@@H]1NC(=O)[C@H](CC2CCCC2)N(C)C(=O)C[C@@H](C(=O)N2CCC2)N(C)C(=O)[C@H](C2CCCC2)N(C)C(=O)C2(CCCC2)NC(=O)[C@@H]2CCCN2C(=O)[C@H](CCc2ccc(C(F)(F)F)c(Cl)c2)NC(=O)CN(C)C(=O)[C@H](CC2CCCCC2)N(C)C(=O)[C@@H]2CCN2C(=O)[C@H](C)NC1=O` [Compound 921] ([NMeAla(cPent)]IA[Aze][NMeCha][Sar][hPhe(3-Cl-4-CF3)]P[Ac5c][NMeGly(cPent)][NMeD]-{Azetidin(1-yl)}; lactam N-11), the IC50 turned out to be 1.1 nM.

For `CC[C@H](C)[C@@H]1NC(=O)[C@H](CC(C)C)N(C)C(=O)C[C@@H](C(=O)N2CCCCC2)N(C)C(=O)[C@H]([C@@H](C)CC)N(C)C(=O)C2(CCCC2)NC(=O)[C@@H]2CCCN2C(=O)[C@H](CCc2ccc(C(F)(F)F)c(Cl)c2)NC(=O)CN(C)C(=O)[C@H](C2CCCC2)N(C)C(=O)[C@@H]2CCN2C(=O)[C@H](C)N(C)C1=O` [Compound 807] ([NMeL]I[NMeA][Aze][NMeGly(cPent)][Sar][hPhe(3-Cl-4-CF3)]P[Ac5c][NMeI][NMeD]-Piperidide; lactam N-11), the IC50 came out at 0.74 nM.

`CC[C@H](C)[C@@H]1NC(=O)[C@H](CC(C)C)N(C)C(=O)C[C@@H](C)NC(=O)[C@H](C(C)C)N(C)C(=O)C2(CCCC2)NC(=O)[C@@H]2CCCN2C(=O)[C@H](CCc2ccc(C(F)(F)F)c(Cl)c2)NC(=O)CN(C)C(=O)[C@H](CC2CCCCC2)N(C)C(=O)[C@@H]2CCN2C(=O)[C@H](Cc2ccccc2)N(C)C1=O` [Compound 1628] (cyclo([Ac5c][NMeV][d(β3hA)][NMeL]I[NMeF][Aze][NMeCha][Sar][hPhe(3-Cl-4-CF3)]P)): the IC50 is 67 nM.

With `CC[C@H](C)[C@@H]1NC(=O)[C@H](CC(C)C)N(C)C(=O)C[C@@H](C(=O)N(C)C)N(C)C(=O)[C@H](C2CCCC2)N(C)C(=O)C2(CCCC2)NC(=O)[C@H](CC(=O)N(C)C)N(C)C(=O)[C@H](CCc2ccc(C(F)(F)F)c(Cl)c2)NC(=O)CN(C)C(=O)[C@H](CC2CCCCC2)N(C)C(=O)[C@@H]2CCN2C(=O)[C@H](C)N(C)C1=O` [Compound 2106, (3S,6S,9S,13S,16S,22S,25S,31S,34S)-25-[2-[3-chloro-4-(trifluoromethyl)phenyl]ethyl]-31-(cyclohexylmethyl)-16-cyclopentyl-22-[2-(dimethylamino)-2-oxo-ethyl]-9-isobutyl-N,N,3,4,10,14,17,23,29,32-decamethyl-6-[(1S)-1-methylpropyl]-2,5,8,11,15,18,21,24,27,30,33-undecaoxo-spiro[1,4,7,10,14,17,20,23,26,29,32-undecazabicyclo[32.2.0]hexatriacontane-19,1-cyclopentane]-13-carboxamide] ([NMeL]I[NMeA][Aze][NMeCha][Sar][hPhe(3-Cl-4-CF3)][NMeD](NMe2)[Ac5c][NMeGly(cPent)][NMeD]-NMe2; lactam N-11), the IC50 worked out at 2 nM.

As for `CC[C@H](C)[C@@H]1NC(=O)[C@H](C(C)C)N(C)C(=O)C[C@@H](C(=O)N2CCCCC2)N(C)C(=O)[C@H](C(C)C)N(C)C(=O)C2(CCCC2)NC(=O)[C@@H]2CCCN2C(=O)[C@H](CCc2ccc(C(F)(F)F)c(Cl)c2)NC(=O)CN(C)C(=O)[C@H](CC2CCCCC2)N(C)C(=O)[C@@H]2CCN2C(=O)[C@H](C)N(C)C1=O` [Compound 1767] ([NMeV]I[NMeA][Aze][NMeCha][Sar][hPhe(3-Cl-4-CF3)]P[Ac5c][NMeV][NMeD]-Piperidide; lactam N-11), the IC50 was found to be 7.2 nM.

Turning to `CCCOC[C@H]1C(=O)N[C@@H]([C@@H](C)CC)C(=O)N(C)[C@@H](C)C(=O)N2CC[C@H]2C(=O)N(C)[C@@H](CC2CCCCC2)C(=O)N(C)CC(=O)N[C@@H](CCc2ccc(C(F)(F)F)c(Cl)c2)C(=O)N2CCC[C@H]2C(=O)NC2(CCCC2)C(=O)N(C)[C@@H](C(C)C)C(=O)N(C)[C@H](C(=O)N2CCCCC2)CC(=O)N1C` [Compound 1763] ([NMeS](Propyl)I[NMeA][Aze][NMeCha][Sar][hPhe(3-Cl-4-CF3)]P[Ac5c][NMeV][NMeD]-Piperidide; lactam N-11), the IC50 turned out to be 4.5 nM.

As for `CC[C@H](C)[C@@H]1NC(=O)[C@H](CC(C)C)N(CC)C(=O)C[C@@H](C(=O)N(C)C)N(C)C(=O)[C@H]([C@@H](C)CC)N(C)C(=O)C2(CCCC2)NC(=O)[C@@H]2CCCN2C(=O)[C@H](CCc2ccc(C(F)(F)F)c(Cl)c2)NC(=O)CN(C)C(=O)[C@H](Cc2ccc(C)cc2)N(C)C(=O)[C@@H]2CCN2C(=O)[C@H](C)NC1=O` [Compound 1287] ([NEtLeu]IA[Aze][NMePhe(4-Me)][Sar][hPhe(3-Cl-4-CF3)]P[Ac5c][NMeI][NMeD]-NMe2; lactam N-11), the IC50 is 1.1 nM.

Consider `CCCCC[C@H]1C(=O)N[C@@H]([C@@H](C)CC)C(=O)N[C@@H](C)C(=O)N2CC[C@H]2C(=O)N(C)[C@@H](CC2CCCCC2)C(=O)N(C)CC(=O)N[C@@H](CCc2ccc(C(F)(F)F)c(Cl)c2)C(=O)N2CCC[C@H]2C(=O)NC2(CCCC2)C(=O)N(C)[C@@H](C2CCCC2)C(=O)N(C)[C@H](C(=O)N2CCC2)CC(=O)N1C` [Compound 155] ([NMeAhp(2)]IA[Aze][NMeCha][Sar][hPhe(3-Cl-4-CF3)]P[Ac5c][NMeGly(cPent)][NMeD]-{Azetidin(1-yl)}; lactam N-11), for which the IC50 came out at 1.6 nM.

On to `CC[C@H](C)[C@@H]1NC(=O)[C@H](CC(C)C)N(C)C(=O)C[C@@H](C)NC(=O)[C@H](C2CCCC2)N(C)C(=O)C2(CCCC2)NC(=O)[C@@H]2CCCN2C(=O)[C@H](CCc2ccc(C(F)(F)F)c(Cl)c2)NC(=O)CN(C)C(=O)[C@H](Cc2ccc(C)cc2)N(C)C(=O)[C@@H]2CCN2C(=O)[C@H](C)NC1=O` [Compound 1331] (cyclo(A[Aze][NMePhe(4-Me)][Sar][hPhe(3-Cl-4-CF3)]P[Ac5c][NMeGly(cPent)][d(β3hA)][NMeL]I)), for which the IC50 was 1.1 nM.

Take `CC[C@H](C)[C@@H]1NC(=O)[C@H](CC(C)C)N(C)C(=O)C[C@@H](C(=O)N2CCOCC2)N(C)C(=O)[C@H](C2CCCC2)N(C)C(=O)C2(CCCC2)NC(=O)[C@H](CCC(=O)N(C)C)N(C)C(=O)[C@H](CCc2ccc(C(F)(F)F)c(Cl)c2)NC(=O)CN(C)C(=O)[C@H](CC2CCCCC2)N(C)C(=O)[C@@H]2CCN2C(=O)[C@H](C)N(C)C1=O` [Compound 2108, 3-[(3S,6S,9S,13S,16S,22S,25S,31S,34S)-25-[2-[3-chloro-4-(trifluoromethyl)phenyl]ethyl]-31-(cyclohexylmethyl)-16-cyclopentyl-9-isobutyl-3,4,10,14,17,23,29,32-octamethyl-6-[(1S)-1-methylpropyl]-13-(morpholine-4-carbonyl)-2,5,8,11,15,18,21,24,27,30,33-undecaoxo-spiro[1,4,7,10,14,17,20,23,26,29,32-undecazabicyclo[32.2.0]hexatriacontane-19,1′-cyclopentane]-22-yl]-N,N-dimethyl-propanamide] ([NMeL]I[NMeA][Aze][NMeCha][Sar][hPhe(3-Cl-4-CF3)][NMeE](NMe2)[Ac5c][NMeGly(cPent)][NMeD]-Morpholide; lactam N-11): the IC50 turned out to be 7.9 nM.

In the case of `CCO[C@@H]1C[C@H]2C(=O)NC3(CCCC3)C(=O)N(C)[C@@H](CC(C)C)C(=O)N(C)[C@H](C(=O)N3CCOCC3)CC(=O)N(C)[C@@H](CC(C)C)C(=O)N[C@@H]([C@@H](C)CC)C(=O)N(C)CC(=O)N(C)CC(=O)N(C)[C@@H](CC3CCCCC3)C(=O)N(C)CC(=O)N[C@@H](CCc3ccc(C(F)(F)F)c(Cl)c3)C(=O)N2C1` [Compound 1785] ([NMeL]I[Sar][Sar][NMeCha][Sar][hPhe(3-Cl-4-CF3)][Hyp](Et)[Ac5c][NMeL][NMeD]-Morpholide; lactam N-11), the IC50 turned out to be 0.45 nM.

Regarding `CC[C@H](C)[C@@H]1NC(=O)[C@H](CC(C)C)N(C)C(=O)C[C@@H](C(=O)N2CCCCC2)N(C)C(=O)[C@H](C2CCCC2)N(C)C(=O)C2(CCCC2)NC(=O)[C@@H]2CCCN2C(=O)[C@H](CCc2ccc(OC(F)(F)F)c(Cl)c2)NC(=O)CN(C)C(=O)[C@H](CC2CCCCC2)N(C)C(=O)[C@@H]2CCN2C(=O)[C@H](C)N(C)C1=O` [Compound 2057] ([NMeL]I[NMeA][Aze][NMeCha][Sar][X13]P[Ac5c][NMeGly(cPent)][NMeD]-Piperidide; lactam N-11 (inferred); C-terminus assumed), the IC50 came to 1.1 nM.

As to `CC[C@H](C)[C@@H]1NC(=O)[C@H](CC(C)C)N(C)C(=O)C[C@@H](C(=O)N2CCCC2)N(C)C(=O)[C@H](C(C)C)N(C)C(=O)C2(CCCC2)NC(=O)[C@@H]2CCCN2C(=O)[C@H](CCc2ccc(C(F)(F)F)c(Cl)c2)NC(=O)CN(C)C(=O)[C@H](CC2CCCCC2)N(C)C(=O)[C@@H]2CCN2C(=O)CN(C)C1=O` [Compound 1670] ([NMeL]I[Sar][Aze][NMeCha][Sar][hPhe(3-Cl-4-CF3)]P[Ac5c][NMeV][NMeD]-Pyrrolidide; lactam N-11), the half-inhibitory concentration (IC50) came to 1 nM.
